Measurements from US11267844B2, “Spirothietane nucleosides” (Janssen Pharmaceutica NV, priority 2017, dated 2022).

Key:
HCV polymerase = HCV polymerase (Hepatitis C virus genotype 1b, UniProt Q9WMX2); test: Biochemical HCV polymerase inhibition
[1] = biological target: T1, dengue virus NS5 polymerase domain (DENVpol, serotype 2, New Guinea C strain) (Dengue virus type 2, UniProt P14340); test: Dengue virus polymerase inhibition assay; assay type: biochemical, dengue virus serotype 2
T1 construct: The enzyme activity of dengue virus NS5 polymerase domain
Procedure: The enzyme activity of dengue virus NS5 polymerase domain (DENVpol, serotype 2, New Guinea C strain) is measured as an incorporation of tritiated NMP into acid-insoluble RNA products. DENVpol assay reactions contain recombinant enzyme, heteropolymeric RNA, about 0.5 μCi tritiated NTP, 0.33 μM of competing cold NTP, 40 mM HEPES (pH 7.5), 3 mM dithiothreitol, and 2 mM MgCl2. Standard reactions are incubated for 3 hours at 30° C., in the presence of increasing concentration of inhibitor. At the end of the reaction, RNA is precipitated with 10% TCA, and acid-insoluble RNA products are filtered on a size exclusion 96-well plate. After washing of the plate, scintillation liquid is added and radiolabeled RNA products are detected according to standard procedures with a Trilux Topcount scintillation counter. The compound concentration at which the enzyme-catalyzed rate is reduced by 50% (IC50) is calculated by fitting the data to a non-linear regression (sigmoidal).

HCV polymerase, sequence (Q9WMX2 2420-3010): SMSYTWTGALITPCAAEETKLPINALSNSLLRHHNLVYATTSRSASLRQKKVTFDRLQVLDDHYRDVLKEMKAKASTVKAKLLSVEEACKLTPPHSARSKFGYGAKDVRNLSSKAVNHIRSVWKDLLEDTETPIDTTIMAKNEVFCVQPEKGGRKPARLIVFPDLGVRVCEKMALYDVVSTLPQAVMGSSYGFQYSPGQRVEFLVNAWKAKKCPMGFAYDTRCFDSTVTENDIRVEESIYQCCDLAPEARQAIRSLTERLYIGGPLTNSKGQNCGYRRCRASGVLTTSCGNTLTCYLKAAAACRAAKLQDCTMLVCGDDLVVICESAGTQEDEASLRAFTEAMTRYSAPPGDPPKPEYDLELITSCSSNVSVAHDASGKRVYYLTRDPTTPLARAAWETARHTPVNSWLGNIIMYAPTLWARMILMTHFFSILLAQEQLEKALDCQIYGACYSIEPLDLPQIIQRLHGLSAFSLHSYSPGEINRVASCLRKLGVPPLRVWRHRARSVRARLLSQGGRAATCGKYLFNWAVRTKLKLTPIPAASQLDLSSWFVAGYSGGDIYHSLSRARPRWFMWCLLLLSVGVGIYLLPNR

Row | Structure (SMILES) | IC50 (HCV polymerase) | IC50 [1]
1 | Nc1nc2c(ncn2[C@@H]2O[C@H](COP(=O)(O)OP(=O)(O)OP(=O)(O)O)[C@@H](O)[C@]23CCS3)c(=O)[nH]1 [Compound 63] | 0.18 µM | > 10 µM
2 | Nc1ccn([C@@H]2O[C@H](COP(=O)(O)OP(=O)(O)OP(=O)(O)O)[C@@H](O)[C@]23CCS3)c(=O)n1 [Compound 59] | 0.32 µM | 2.91 µM
3 | O=c1ccn([C@@H]2O[C@H](COP(=O)(O)OP(=O)(O)OP(=O)(O)O)[C@@H](O)[C@]23CCS3)c(=O)[nH]1 [Compound 58] | 0.74 µM | 49.7 µM
4 | O=c1ccn([C@@H]2O[C@](F)(COP(=O)(O)OP(=O)(O)OP(=O)(O)O)[C@@H](O)[C@]23CCS3)c(=O)[nH]1 [Compound 60] | 0.69 µM | > 10 µM
5 | Nc1ccn([C@@H]2O[C@](F)(COP(=O)(O)OP(=O)(O)OP(=O)(O)O)[C@@H](O)[C@]23CCS3)c(=O)n1 [Compound 61] | 0.16 µM | 2.44 µM
